One sequence from patent publication US11352399B2, “Peptide for toll-like receptor (TLR) inhibition and pharmaceutical composition comprising same” (GENESEN CO., LTD., priority 2017, dated 2022) can be followed below.

One test deals with TLR4 signaling pathways. The test can be described thus: Western blotting of NF-κB and MAPK in LPS-treated hPBMC cells. Type of test: cell-based, human. The note with it: LPS together with TIP1. The procedure:
In order to perform Western blotting, a pre-protein extraction solution (M-PER, Thermo Fisher Scientific Inc.) was mixed with a protease and phosphatase inhibitor mixture, and was added to RAW 264.7 cell or hPBMC cell pellets. The pellets were cooled for 10 minutes, and then the lysates were centrifuged at 16000×g for 10 minutes. Then, NE-PER nuclear and cytoplasmic extraction reagents (Thermo Fisher Scientific Inc.) were used to extract cytoplasmic and nuclear proteins, respectively, and a BCA kit (Sigma-Alderich Co. LLC) was used to measure concentrations of the proteins. Subsequently, the same amounts of proteins were developed on SDS-polyacrylamide gels, and electrophoresis was performed using the Mini-PROTEAN Tetra Cell two-dimensional electrophoresis system (Bio-Rad Laboratories, Hercules, Calif., USA). The membrane was immunoblotted with primary antibodies by gentle shaking overnight at a temperature of 4° C. […] Then, after thorough shaking with PBST, the membrane was incubated with anti-mouse/-rabbit HRP-conjugated secondary antibodies (Thermo Fisher Scientific Inc.) for 2 hours; and the proteins were detected with SuperSignal West Pico ECL solution (Thermo Fisher Scientific Inc.) and were visualized with the Fuji LAS-3000 system (Fujifilm, Tokyo, Japan). […]
(In general: In western blotting, separated proteins are transferred to a membrane and probed.)

The next test has as its target T1, TLR2/6 (Mus musculus, UniProt Q9EPW9+Q9QUN7).
T1 construct: host or cells: RAW 264.7
The test can be described thus: TNF-α secretion in RAW 264.7 cells with FSL-1. Type of test: cell-based.

The next test concerns the target T2, TLR3 (Mus musculus, UniProt Q99MB1).
T2 construct: host or cells: RAW 264.7
T2 sequence (Q99MB1 26-905): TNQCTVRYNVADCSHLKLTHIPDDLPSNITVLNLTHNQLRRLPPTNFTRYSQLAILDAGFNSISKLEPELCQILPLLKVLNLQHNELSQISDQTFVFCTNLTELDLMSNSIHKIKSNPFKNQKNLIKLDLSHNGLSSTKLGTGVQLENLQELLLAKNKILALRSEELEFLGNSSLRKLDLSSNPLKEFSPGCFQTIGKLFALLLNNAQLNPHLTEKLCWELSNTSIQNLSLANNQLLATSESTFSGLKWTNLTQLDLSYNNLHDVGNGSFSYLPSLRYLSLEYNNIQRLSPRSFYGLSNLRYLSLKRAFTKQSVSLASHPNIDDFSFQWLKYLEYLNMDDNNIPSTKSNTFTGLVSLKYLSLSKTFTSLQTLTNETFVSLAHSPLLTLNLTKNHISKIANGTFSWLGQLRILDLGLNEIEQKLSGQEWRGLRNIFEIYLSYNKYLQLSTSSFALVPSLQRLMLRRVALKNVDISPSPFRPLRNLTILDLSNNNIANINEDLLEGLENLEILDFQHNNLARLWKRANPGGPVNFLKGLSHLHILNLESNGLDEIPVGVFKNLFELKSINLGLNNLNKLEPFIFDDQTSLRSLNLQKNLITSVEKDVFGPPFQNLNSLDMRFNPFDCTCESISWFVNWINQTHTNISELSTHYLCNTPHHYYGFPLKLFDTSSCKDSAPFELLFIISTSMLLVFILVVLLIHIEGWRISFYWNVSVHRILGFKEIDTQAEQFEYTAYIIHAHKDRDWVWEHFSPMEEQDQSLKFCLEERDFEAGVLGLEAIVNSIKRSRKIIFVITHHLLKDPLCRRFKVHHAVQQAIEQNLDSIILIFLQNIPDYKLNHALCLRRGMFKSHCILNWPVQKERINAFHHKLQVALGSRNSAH
The test can be described thus: TNF-α and IFN-β secretion in RAW 264.7 cells with Poly(I:C). Type of test: cell-based.

Test [1] has as its system NLRP3 inflammasome. The test can be described thus: Western blotting of NLRP3 inflammasome molecules in LPS/ATP-treated THP1 cells. Type of test: cell-based, human.
For test [2], the system named is NLRP3 inflammasome. The test can be described thus: IL-1β secretion (ELISA) in LPS/ATP-treated mBMDM cells. The note with it: TIP1 and LPS/ATP. Type of test: cell-based, mouse.
In test [3] the test system is renal tissue of LPS-treated mice. Kind of test: Renal apoptosis by TUNEL staining in LPS-treated mice. The note with it: TIP1 and LPS, 24 hours. It counts as in vivo, mouse. The protocol: Subsequently, renal tissues were isolated and weighed using an electronic balance (ER-180A, A&D Company, Tokyo, Japan); and then, cut into sagittal planes to make slices. The slices were left overnight in a 10% formalin solution, and then solidified by pouring of paraffin wax. The resultant was made into thin sections of 4 μm using a microtome and fixed. […] The images were analyzed using Zen 2009 software (Carl Zeiss MicroImaging GmbH.). The results are illustrated in FIG. 17.

T1 sequence (Q9QUN7 25-784): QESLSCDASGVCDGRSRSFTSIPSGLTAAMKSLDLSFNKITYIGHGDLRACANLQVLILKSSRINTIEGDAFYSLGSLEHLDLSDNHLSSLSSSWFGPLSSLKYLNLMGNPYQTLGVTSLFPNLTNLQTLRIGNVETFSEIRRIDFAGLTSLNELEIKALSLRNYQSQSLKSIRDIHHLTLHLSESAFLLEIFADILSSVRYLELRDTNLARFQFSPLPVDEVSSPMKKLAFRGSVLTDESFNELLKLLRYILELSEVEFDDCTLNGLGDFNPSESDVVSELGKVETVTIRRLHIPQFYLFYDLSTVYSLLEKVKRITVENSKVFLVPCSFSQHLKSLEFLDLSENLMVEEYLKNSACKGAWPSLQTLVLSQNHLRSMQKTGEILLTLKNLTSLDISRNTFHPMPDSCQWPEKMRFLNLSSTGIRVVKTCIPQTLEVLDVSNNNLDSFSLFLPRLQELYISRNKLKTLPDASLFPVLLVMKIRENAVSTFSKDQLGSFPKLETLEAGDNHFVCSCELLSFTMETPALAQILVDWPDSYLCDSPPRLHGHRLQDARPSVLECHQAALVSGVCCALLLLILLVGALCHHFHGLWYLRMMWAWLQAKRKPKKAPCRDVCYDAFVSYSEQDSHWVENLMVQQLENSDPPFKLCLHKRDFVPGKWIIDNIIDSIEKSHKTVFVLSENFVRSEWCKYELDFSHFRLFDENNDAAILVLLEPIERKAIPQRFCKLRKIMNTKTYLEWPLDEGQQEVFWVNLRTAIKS
T1 sequence (Q9EPW9 28-795): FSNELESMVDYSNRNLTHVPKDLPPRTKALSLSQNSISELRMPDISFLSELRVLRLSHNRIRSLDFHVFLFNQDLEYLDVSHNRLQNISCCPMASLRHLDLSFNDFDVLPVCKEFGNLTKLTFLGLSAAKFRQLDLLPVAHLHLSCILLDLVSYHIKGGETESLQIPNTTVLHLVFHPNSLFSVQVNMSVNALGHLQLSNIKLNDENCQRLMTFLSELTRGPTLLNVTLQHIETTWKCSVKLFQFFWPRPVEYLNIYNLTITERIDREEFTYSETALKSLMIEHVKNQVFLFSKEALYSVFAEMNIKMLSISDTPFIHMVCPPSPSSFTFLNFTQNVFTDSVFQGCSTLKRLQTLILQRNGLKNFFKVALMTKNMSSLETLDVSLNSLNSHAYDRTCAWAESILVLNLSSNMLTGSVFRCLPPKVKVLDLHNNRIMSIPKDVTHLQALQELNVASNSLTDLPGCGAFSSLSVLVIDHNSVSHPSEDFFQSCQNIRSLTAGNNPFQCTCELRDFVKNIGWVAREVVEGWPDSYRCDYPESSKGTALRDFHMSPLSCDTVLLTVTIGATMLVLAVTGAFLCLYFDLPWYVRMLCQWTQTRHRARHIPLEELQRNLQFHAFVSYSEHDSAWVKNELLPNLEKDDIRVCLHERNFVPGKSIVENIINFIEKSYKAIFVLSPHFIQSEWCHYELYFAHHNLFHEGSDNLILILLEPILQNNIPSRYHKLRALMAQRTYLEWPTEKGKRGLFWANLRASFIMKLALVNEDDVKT

RQIKIWFQNRRMKWKKSHCRVLLI (TIP1): in the test with TLR4 signaling pathways, the “MAPK activity (phosphorylation of ERK, JNK, p38)” value is given as “MAPK activity is inhibited” and the “NF-κB activity (Iκ-Bα, Western blotting)” value is listed as “NF-κB activity was inhibited”. For the same sequence, the “secretion level of TNF-α” value with TLR2/6 is “decreased”. In the test with TLR3 (Poly(I:C) (TLR3)), the “secretion level of TNF-α” value is recorded as “decreased”. Further, the “decrease of TNF-α secretion (inhibitory effect on TLR3 signaling)” value with TLR3 (Poly(I:C), at 50 μM) is 92%. Besides, the “secretion level of IFN-β” value with TLR3 (TIP1 together with Poly(I:C), ELISA) was “decreased”. Also, in the test on NLRP3 inflammasome [1], the “intracellular expression level of NLRP3” value was “remarkably decreased”, the “intracellular expression level of active caspase-1 (10 kDa)” value is recorded as “remarkably decreased” and the “intracellular expression level of mature IL-1β (17 kDa)” value was “remarkably decreased”. Moreover, the “secretion level of IL-1β” value with NLRP3 inflammasome [2] was “decreased”. Besides, in test [3], the “apoptosis in renal tissue (TUNEL-positive cells)” value is listed as “decreased”.
